The supplement of paper PMC4862054

system: CAL-120; experiment: normalised response (% of control), CellTiter-Glo; higher = more viable cells (100 = DMSO, 0 = benzethonium chloride kill control); settings: incubation time: 72 h
Outline: (§1)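 Breast cancer cell lines (20 µl suspension) were seeded into 384-well plates holding compound at 5 concentrations in 10-fold steps over a compound-specific 10,000-fold range, then incubated 72 h. CellTox Green fluorescence (485/520 nm) was read first, then CellTiter-Glo luminescence after 10 min at room temperature. Each plate was normalised to 0.1 % DMSO (100) and a positive kill control (0). Each value is the normalised signal at a single concentration of the series.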

Compound	normalised response
CNC(=O)c1cccc(-c2ccc3c(N4CCOC[C@@H]4C)nc(N4CCOC[C@@H]4C)nc3n2)c1 [AZD2014] (10 nM)	93.5%
CN(C)c1nc(N(C)C)nc(N(C)C)n1 [Altretamine] (10 nM)	97.9%
O=C(/C=C/c1cccc(S(=O)(=O)Nc2ccccc2)c1)NO [Belinostat] (10 nM)	96.9%
Nc1cc(C(F)(F)F)c(-c2cc(N3CCOCC3)nc(N3CCOCC3)n2)cn1 [Buparlisib] (1 nM)	103%
Nc1cc(C(F)(F)F)c(-c2cc(N3CCOCC3)nc(N3CCOCC3)n2)cn1 [Buparlisib] (10 nM)	104%
O=P1(N(CCCl)CCCl)NCCCO1 (centres undefined) [Cyclophosphamide] (40 nM)	96.8%
CNC(=O)c1ccc(N2C(=S)N(c3ccc(C#N)c(C(F)(F)F)c3)C(=O)C2(C)C)cc1F [Enzalutamide] (1 nM)	98.8%
CNC(=O)c1ccc(N2C(=S)N(c3ccc(C#N)c(C(F)(F)F)c3)C(=O)C2(C)C)cc1F [Enzalutamide] (10 nM)	95.3%
C=C1C[C@@H]2[C@H](CC[C@]3(C)C(=O)CC[C@@H]23)[C@@]2(C)C=CC(=O)C=C12 [Exemestane] (10 nM)	98%
Cc1cc(Nc2cc(CN3CCOCC3)c3nc(C)c(Cc4ccc(Cl)cc4F)n3n2)n[nH]1 [Gandotinib] (10 nM)	98.2%
O=C(Nc1ccncc1)C(=O)c1cn(Cc2ccc(Cl)cc2)c2ccccc12 [Indibulin] (10 nM)	92.6%
Cc1ccc(NC(=O)c2ccc(CN3CCN(C)CC3)cc2)cc1Nc1nc(-c2cccnc2)cs1 [Masitinib] (10 nM)	91.5%
Cc1[nH]c2ccccc2c1CCNCc1ccc(/C=C/C(=O)NO)cc1 [Panobinostat] (1 nM)	101%
COCC1(CO)C(=O)C2CCN1CC2 (centres undefined) [Prima-1 Met] (10 nM)	92.4%

system: MDA-MB-231; experiment: as above; settings: incubation time: 72 h
Outline: as §1

Compound	normalised response
CCn1c(-c2nonc2N)nc2cnc(Oc3cccc(NC(=O)c4ccc(OCCN5CCOCC5)cc4)c3)cc21 (1 nM)	102%
CCn1c(-c2nonc2N)nc2cnc(Oc3cccc(NC(=O)c4ccc(OCCN5CCOCC5)cc4)c3)cc21 (10 nM)	99.8%
N#Cc1ccc(COC[C@H]2O[C@@H](n3c(NCc4ccc(Cl)c(Cl)c4)nc4c(N)ncnc43)[C@H](O)[C@@H]2O)cc1 (10 nM)	106%
COc1cc(O)c2c(c1)/C=C/C[C@H](O)[C@H](O)C(=O)/C=C\C[C@H](C)OC2=O [(5Z)-7-Oxozeaenol] (1 nM)	103%
COc1cc(O)c2c(c1)/C=C/C[C@H](O)[C@H](O)C(=O)/C=C\C[C@H](C)OC2=O [(5Z)-7-Oxozeaenol] (10 nM)	109%
COc1cc(OC2CCN(C)CC2)ccc1Nc1ncc2c(n1)n(C1CCCC1)c(=O)n2C [AZ 3146] (10 nM)	104%
CNC(=O)c1cccc(-c2ccc3c(N4CCOC[C@@H]4C)nc(N4CCOC[C@@H]4C)nc3n2)c1 [AZD2014] (1 nM)	108%
CNC(=O)c1cccc(-c2ccc3c(N4CCOC[C@@H]4C)nc(N4CCOC[C@@H]4C)nc3n2)c1 [AZD2014] (10 nM)	97.7%
CN(C)c1nc(N(C)C)nc(N(C)C)n1 [Altretamine] (10 nM)	101%
O=C(/C=C/c1cccc(S(=O)(=O)Nc2ccccc2)c1)NO [Belinostat] (10 nM)	98.5%
Nc1cc(C(F)(F)F)c(-c2cc(N3CCOCC3)nc(N3CCOCC3)n2)cn1 [Buparlisib] (1 nM)	98.7%
Nc1cc(C(F)(F)F)c(-c2cc(N3CCOCC3)nc(N3CCOCC3)n2)cn1 [Buparlisib] (10 nM)	103%
O=P1(N(CCCl)CCCl)NCCCO1 (centres undefined) [Cyclophosphamide] (40 nM)	99.9%
CNC(=O)c1ccc(N2C(=S)N(c3ccc(C#N)c(C(F)(F)F)c3)C(=O)C2(C)C)cc1F [Enzalutamide] (1 nM)	95%
CNC(=O)c1ccc(N2C(=S)N(c3ccc(C#N)c(C(F)(F)F)c3)C(=O)C2(C)C)cc1F [Enzalutamide] (10 nM)	94.5%
C=C1C[C@@H]2[C@H](CC[C@]3(C)C(=O)CC[C@@H]23)[C@@]2(C)C=CC(=O)C=C12 [Exemestane] (10 nM)	106%
Cc1cc(Nc2cc(CN3CCOCC3)c3nc(C)c(Cc4ccc(Cl)cc4F)n3n2)n[nH]1 [Gandotinib] (10 nM)	102%
O=C(Nc1ccncc1)C(=O)c1cn(Cc2ccc(Cl)cc2)c2ccccc12 [Indibulin] (10 nM)	104%
Cc1ccc(NC(=O)c2ccc(CN3CCN(C)CC3)cc2)cc1Nc1nc(-c2cccnc2)cs1 [Masitinib] (10 nM)	100%
Cc1[nH]c2ccccc2c1CCNCc1ccc(/C=C/C(=O)NO)cc1 [Panobinostat] (1 nM)	102%
COCC1(CO)C(=O)C2CCN1CC2 (centres undefined) [Prima-1 Met] (10 nM)	103%

system: HDQ-P1; experiment: as above; settings: incubation time: 72 h
Outline: as §1

Compound	normalised response
CCn1c(-c2nonc2N)nc2cnc(Oc3cccc(NC(=O)c4ccc(OCCN5CCOCC5)cc4)c3)cc21 (1 nM)	104%
CCn1c(-c2nonc2N)nc2cnc(Oc3cccc(NC(=O)c4ccc(OCCN5CCOCC5)cc4)c3)cc21 (10 nM)	103%
N#Cc1ccc(COC[C@H]2O[C@@H](n3c(NCc4ccc(Cl)c(Cl)c4)nc4c(N)ncnc43)[C@H](O)[C@@H]2O)cc1 (10 nM)	97.5%
COc1cc(O)c2c(c1)/C=C/C[C@H](O)[C@H](O)C(=O)/C=C\C[C@H](C)OC2=O [(5Z)-7-Oxozeaenol] (1 nM)	105%
COc1cc(O)c2c(c1)/C=C/C[C@H](O)[C@H](O)C(=O)/C=C\C[C@H](C)OC2=O [(5Z)-7-Oxozeaenol] (10 nM)	96.9%
COc1cc(OC2CCN(C)CC2)ccc1Nc1ncc2c(n1)n(C1CCCC1)c(=O)n2C [AZ 3146] (10 nM)	95.9%
CNC(=O)c1cccc(-c2ccc3c(N4CCOC[C@@H]4C)nc(N4CCOC[C@@H]4C)nc3n2)c1 [AZD2014] (1 nM)	98%
CNC(=O)c1cccc(-c2ccc3c(N4CCOC[C@@H]4C)nc(N4CCOC[C@@H]4C)nc3n2)c1 [AZD2014] (10 nM)	98.8%
CN(C)c1nc(N(C)C)nc(N(C)C)n1 [Altretamine] (10 nM)	98.9%
O=C(/C=C/c1cccc(S(=O)(=O)Nc2ccccc2)c1)NO [Belinostat] (10 nM)	88.5%
Nc1cc(C(F)(F)F)c(-c2cc(N3CCOCC3)nc(N3CCOCC3)n2)cn1 [Buparlisib] (1 nM)	97.3%
Nc1cc(C(F)(F)F)c(-c2cc(N3CCOCC3)nc(N3CCOCC3)n2)cn1 [Buparlisib] (10 nM)	99%
O=P1(N(CCCl)CCCl)NCCCO1 (centres undefined) [Cyclophosphamide] (40 nM)	98.4%
CNC(=O)c1ccc(N2C(=S)N(c3ccc(C#N)c(C(F)(F)F)c3)C(=O)C2(C)C)cc1F [Enzalutamide] (1 nM)	100%
